Where two headings read alike, the source gives them in different places.
How the values were obtained:
[1] = test system: nitrite production in mixed primary glial cultures; conditions: read-out: EC50 Nitrite Reduction; positive control; cited from earlier work
[2] = test system: NRF2; assay: NRF2 induction, luciferase activity in AREc32 reporter cells; type: cell-based, human; conditions: Homo sapiens; AREc32 cells, 24 h; concentration required to double luciferase activity compared to basal; read-out: CD (µM) NRF2 Induction
Description: Cells were used from the third to twelfth passage.
AREc32 cells were stably transfected with the plasmid pGL-8xARE that implements 8 copies of the antioxidant response element (ARE) sequences followed by luciferase reporter gen. Therefore, NRF2 induction can be related to the activation of ARE sequences by measuring luciferase activity in terms of luminescence production. For NRF2 induction experiments, cells were plated in 96 white flat bottom well plates (20,000 cells/well). After 24 h, cells were incubated with selected compounds at the desired concentrations in duplicates for 24 h. The Luciferase Assay System (Promega E1500) was used according to provider protocol and luminescence was quantified in an Orion II microplate luminometer (Berthold, Germany). Fold induction of luciferase activity was normalized to basal conditions. Data were expressed as CD values, which means the concentration needed to duplicate the luciferase activity compared to basal conditions. CD values were calculated from dose–response curves fitted by non-linear regression for each compound after logarithmic transformation of the data using GraphPad Prism 8.0 software.

[3] = test system: IL-1β; assay: IL-1β levels by ELISA in LPS stimulated primary mixed glial cultures; type: cell-based, rat; conditions: compound 10 μM; LPS 1 µg/mL 18 h
Description: Cells were cultured for 7–10 days before treatment.
Primary glial cells were pre-treated with compounds at the desired concentration for 24 h. Then, treatments were removed and glial cells were incubated with lipopolysaccharide (LPS, 1 μg/mL; Sigma–Aldrich, Spain) in the presence of each compound at the desired concentration for 18 h. Nitrite production was then assessed by modified Griess assay. Briefly, 150 µL of each sample was mixed with 75 µL of 4,4′-diamino-diphenylsulfone (Dapsone) and 75 µL of N-(1-naphthyl)ethylenediamine (Neda). The mixture was incubated at room temperature for 5 min. […] Data were normalized to basal conditions, setting this value as 100% of nitrite production. EC50 values were calculated from dose–response curves obtained from representing percentage of nitrites reduction vs. compound concentration.
Supernatants obtained from mixed primary glial cell cultures were used to determine IL-1β levels by quantitative ELISA kits (Preprotech, R&D Systems-bioNova, Madrid, Spain) following the manufacturer’s instructions. Commercial solution of IL-1β was used to generate a standard curve for sample quantification. Absorbance was measured in a microplate reader SPECTROstar Nano (BMG Labtech) at 405 with 650 nm correction.

[4] = test system: SH-SY5Y cells; assay: Neuroprotection in SH-SY5Y against rotenone/oligomycin A (MTT); type: cell-based, human; conditions: compound 0.1 µM, 24 h pre- and 24 h co-incubation
Description: (§1) Cells were seeded at a density of 60,000 cells/well in 96-well transparent plates for 24 h. Then cells were pre-incubated with the corresponding compound at 0.1 μM. After 24 h, the medium was removed and replaced with 1% (v/v) FBS media containing the corresponding compound at 0.1 µM and the selected toxic stimuli, namely a mixture of rotenone and oligomycin A (R/O; 30/10 μM, respectively; Sigma–Aldrich, Spain) or 6-hydroxydopamine (100 µM; Sigma–Aldrich, Spain). […].

[5] = test system: SH-SY5Y cells; assay: Neuroprotection in SH-SY5Y against 6-hydroxydopamine (MTT); type: cell-based, human; conditions: 6-OHDA 100 µM; compound 0.1 µM, 24 h pre- and 24 h co-incubation
Description: as §1

[6] = test system: SH-SY5Y; conditions: human
Description: They were recovered by centrifugation at 800 rpm for 10 min. Cells from the third to twelfth passage were seeded at a density of 80,000 cells/well in 96-well plates for the neuroprotection studies.
(§2) Basal absorbance was set to 100% and results were normalized to basal conditions.
(§3) Cytotoxicity. LD50 values in several cell cultures employed
(§4) Table S2. Cytotoxicity elicited by 10-18 compounds in SH-SY5Y, AREc32 and mixed pr imary glial cultures. Viability was measured as MTT reduction in presence of increasing concentrations of der ivatives. LD50 values were calcula ted from dose-response curves. Data are expr essed as mean ± SEM of at least 3 independent experiments.
(§5) 1.3. PAMPA control compounds (BBB permeability)
(§6) Table S3. Pr ediction of the BBB passive permeability of control compounds

[7] = test system: AREc32
Description: AREc32 cells, shared by CR Wolf, were grown in Dulbecco’s modified Eagle medium (DMEM) with GlutaMAX (Gibco, Invitrogen, Madrid, Spain), supplemented with 10% (v/v) filtrated fetal bovine serum (FBS; Gibco, Invitrogen, Madrid, Spain), 1% of antibiotics penicillin-streptomycin, and geneticin (0.8 mg/mL G418; Gibco, Invitrogen, Madrid, Spain). […] They were recovered by centrifugation at 800 rpm for 10 min. Cells were used from the third to twelfth passage.
as §2, §3, §4, §5, §6

[8] = test system: Mixed primary glial cultures; assay: Cytotoxicity in mixed primary glial cultures (MTT); conditions: Sprague-Dawley, rat
Description: Mixed primary glial cultures were obtained from cerebral cortex of 2–5-day-old Sprague–Dawley rats. Blood vessels and meninges were first removed in Hank’s balanced salt solution (HBSS) and then forebrains were dissociated in DMEM/F12 medium. After mechanical dissociation, filtering, and centrifugation at 800 rpm for 10 min, cells were plated at a density of 30,000 cells/well in DMEM/F12 medium with 20% (v/v) FBS and 1% penicillin/streptomycin (10,000 units). […] After 5 days, medium was substituted by DMEM/F12 medium with 10% (v/v) FBS. Cells were cultured for 7–10 days before treatment.
as §2, §3, §4, §5, §6

[9] = test system: rat striatal slices; assay: Rat striatal slices exposed to rotenone: ROS production; type: cell-based; conditions: compound 10 µM, rotenone 10 µM, 4 h
Description: Three- to four-month-old Sprague–Dawley rats were decapitated, the brain was removed, and the two brain hemispheres were separated. Each hemisphere was then cut into 300-µm coronal slices using a McIlwain Tissue Chopper (Cavey Laboratory Engineering, Surrey, UK) and separated in a previously oxygenated (95% O2 and 5% CO2) ice-cold Krebs’s dissection buffer (120 mM of NaCl; 2 mM of KCl; 26 mM of NaHCO3; 1.18 mM of KH2PO4; 10 mM of MgSO4; 0.5 mM of CaCl2; 11 mM of glucose; and 200 mM sucrose at pH 7.4) using a Leica SE6 microscope (Leica, Madrid, Spain). Striatum-containing slices were selected and immediately incubated for stabilization in dissection buffer without sucrose, bubbled with 95% O2 and 5% CO2 for 45 min at 34 °C, allowing slices to recover from slicing injury. […] Finally, cell death and the ROS production were measured.
ROS quantification was performed using the fluorescent probe 2,7′-dichlorodihydrofluorescein diacetate (H2DCFDA, λEx/Em = 495/529 nm; Thermo Fisher, Madrid, Spain). Cell death quantification was performed using the fluorescent probe propidium iodide (PI, λEx/Em = 535/617 nm; Thermo Fisher, Madrid, Spain). […] Fluorescence from striatum slices was then recorded for H2DCFDA (λEx/Em = 495/529 nm), PI (λEx/Em = 535/617 nm), and Hoechst (λEx/Em = 350/461 nm), in an inverted Nikon Eclipse T2000-U microscope (Nikon, Tokyo, Japan). […]

[10] = Oxygen radical absorbance capacity (ORAC) assay; conditions: Trolox equivalents, AAPH, fluorescein
Description: The ORAC test was performed to evaluate the oxygen free radical scavenger capacity of the compounds. […] Compounds at desired concentrations (0.03, 0.1, 0.3, 1, 3, and 10 µM) were diluted in phosphate-buffered saline (PBS; 10 mM, pH 7.4) at 37 °C and placed in a 96 black flat bottom well plate. […] A fluorescence measurement was done first to determine the basal signal. Then, 25 µL of 2, 2′-azobis-amidinopropane dihydrochloride (AAPH) (12 mM final concentration) was quickly added. All samples were measured in duplicates in three different experiments. […] Results were expressed in terms of Trolox equivalents (T.eq.), obtained by plotting net AUC versus compound concentration, then performing linear regression and normalizing slopes of the compounds considering Trolox as reference.

[11] = target: T1, MAO-B (Homo sapiens, UniProt P27338); assay: MAO-B reversibility assay (pre-incubation times); type: biochemical; conditions: 0, 15, 30 min pre-incubation at […] IC50
T1 construct: purchased Sigma–Aldrich
T1 sequence (P27338 1-520): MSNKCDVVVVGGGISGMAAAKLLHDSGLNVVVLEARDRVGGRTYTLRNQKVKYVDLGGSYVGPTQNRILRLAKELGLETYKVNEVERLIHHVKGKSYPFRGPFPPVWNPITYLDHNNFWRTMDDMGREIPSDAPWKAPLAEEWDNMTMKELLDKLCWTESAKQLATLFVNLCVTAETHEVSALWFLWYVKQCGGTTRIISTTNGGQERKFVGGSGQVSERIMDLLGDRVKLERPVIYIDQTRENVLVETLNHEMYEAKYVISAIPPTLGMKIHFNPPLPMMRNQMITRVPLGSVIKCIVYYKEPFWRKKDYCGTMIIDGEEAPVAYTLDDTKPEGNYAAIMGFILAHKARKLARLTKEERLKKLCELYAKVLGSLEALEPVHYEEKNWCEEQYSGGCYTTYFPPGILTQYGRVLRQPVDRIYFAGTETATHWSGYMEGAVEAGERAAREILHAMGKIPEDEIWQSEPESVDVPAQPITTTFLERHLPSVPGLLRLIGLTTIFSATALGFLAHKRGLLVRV

[12] = test system: MAO-B; conditions: read-out: IC50 for MAO-B; cited from earlier work
[13] = test system: MAO-A; conditions: read-out: IC50 for MAO-A; cited from earlier work
[14] = Blood–brain barrier permeation assay (PAMPA); conditions: BBB permeability class from Pe
[15] = test system: blood-brain barrier (passive diffusion); assay: Blood–brain barrier permeation assay (PAMPA); conditions: PAMPA, pH 7.4
[16] = target: MAO-B; conditions: cited from earlier work

C[S+]([O-])CCCCN=C=S (centres unmarked) [Sulforaphane]
EC50 [1]: 1400 ± 300 nM

COc1ccc2[nH]cc(CCNC(C)=O)c2c1 [Melatonin, reference compound]
EC50 [2]: > 30 µM
IL-1β Levels % Reduction (10 μM) [3]: 31.6 ± 7.00%
R/O (30/10 µM) Protection (%) [4]: 22.3%
6-OHDA Protection (%) [5]: 88.8%
LD50 (µM) SH-SY5Y [6]: > 100 µM
LD50 (µM) AREc32 ([7]; human): > 30 µM
LD50 (µM) Mixed primary glial cultures [8]: > 30 µM
ROS levels (H2DCFDA), rotenone model [9]: reduced

C#CCN[C@@H]1CCc2ccccc21 [Rasagiline, reference compound]
ORAC (T. eq.) [10]: 0.04 ± 0.02 T. eq.
ORAC (T. eq.) ([10]; listed as rasagiline): no effect
R/O (30/10 µM) Protection (%) [4]: 28.9%
6-OHDA Protection (%) [5]: 77.0%
LD50 (µM) AREc32 ([7]; MTT reduction): > 30 µM
MAO-B inhibition reversibility [11]: Irreversible
PAMPA Prediction [14]: CNS + (CNS + (high BBB permeability): Pe (10^−6 cm s^−1) > 4.0)
Papp at 4 h, 100 µM [15]: 23.5 ± 4.2 ×10⁻⁶ cm/s

C(=CCc1ccccc1)Cc1ccccc1 [1,4-diphenyl-2-butene]
Ki [16]: 35000 nM

Source: paper PMC8868346, “Novel Series of Dual NRF2 Inducers and Selective MAO-B Inhibitors for the Treatment of Parkinson’s Disease” (Antioxidants, 2022)
